Experimental data from PMC5164911, “Comparative Analysis of the Interaction between Different Flavonoids and PDIA3” (Oxidative Medicine and Cellular Longevity, 2016).
Read-outs that look alike come from different tables or passages of the source.

What was measured:
PDIA3 [1] = target: T1, PDIA3 (Homo sapiens, UniProt P30101); assay: DNA binding activity by EMSA; assay type: biochemical; conditions: flavonoid 0 to 50 μM
T1 construct: made in house; host or cells: E. coli BL21 (vector pET21)
T1 sequence (P30101 25-505): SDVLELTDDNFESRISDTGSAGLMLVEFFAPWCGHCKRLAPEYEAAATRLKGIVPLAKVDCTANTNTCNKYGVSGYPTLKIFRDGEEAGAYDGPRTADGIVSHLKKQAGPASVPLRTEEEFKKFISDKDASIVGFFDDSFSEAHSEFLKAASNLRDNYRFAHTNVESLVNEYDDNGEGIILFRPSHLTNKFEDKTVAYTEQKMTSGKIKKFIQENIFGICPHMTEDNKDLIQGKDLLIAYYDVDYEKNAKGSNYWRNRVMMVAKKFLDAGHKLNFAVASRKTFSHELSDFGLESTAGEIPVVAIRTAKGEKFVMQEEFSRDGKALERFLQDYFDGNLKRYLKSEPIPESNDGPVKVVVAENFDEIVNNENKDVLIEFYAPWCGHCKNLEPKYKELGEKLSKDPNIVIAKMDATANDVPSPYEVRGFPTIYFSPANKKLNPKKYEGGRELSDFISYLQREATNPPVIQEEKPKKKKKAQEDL
Description: EMSA assay was performed using a 79-bp […] obtained by PCR as previously described. Amplified DNA was end-labeled by using 5-fluorescein-modified primers. 10 ng of DNA fragment was incubated with 1 μg of PDIA3 or a′ domain, in presence of increasing concentration of flavonoids (from 0 to 50 μM). Controls were performed using DNA alone and in the presence of each flavonoid. All tests were performed in 20 μl mixtures containing 20 mM Tris-HCl, pH 7.5, 50 mM NaCl, and 10% (v/v) glycerol. Samples were incubated for 1 hour at 25°C and then resolved on 5% polyacrylamide gels in 0,25% TBE buffer (22.5 mM Tris-borate, 5 mM EDTA, pH 8.3) at 150 V. Gel images were recorded using a ChemiDoc MP Imaging System (BioRad) equipped with an epi-blue excitation lamp and a 520 nm emission filter.

PDIA3 [2] = target: T1, PDIA3; assay: Fluorescence quenching titration of PDIA3 intrinsic fluorescence; assay type: binding; conditions: for Stern-Volmer constant (K SV): 0.5∗10^−6 M PDIA3 in reduced conditions, pH 7.4, 25°C, flavonoid 0 to 10∗10^−6 M, mean and standard deviation; for bimolecular quenching rate constant (K q): K SV = K q τ0 with τ0 of the order of 10^−8 s; for binding constant (K b): equation of Bi et al., reiterative calculation of Sun et al.
Description: Quantitative analysis of the interaction between individual flavonoids and PDIA3 was performed by fluorimetric titration. […] Briefly, solution of PDIA3 (0.5 μM) or a and a′ domains (1 μM) in phosphate buffered saline (PBS) containing DTT 0.1 mM and EDTA 0.2 mM were titrated in quartz cuvette by stepwise additions, at 5 min time intervals, of individual flavonoid solution (1 mM in PBS/ethanol 50 : 50 v/v freshly prepared from a 20 mM stock solution in DMSO). […] To minimize the inner-filter effect we limited the highest concentration reached in the titration test up to 10 μM. All experiments were carried out at 25°C. Each spectrum was the mean of three repeated scans. Fluorescence spectra of appropriate blanks (flavonoids without proteins) were recorded under the same experimental conditions and subtracted from the corresponding flavonoid-protein system to correct the fluorescence background.
Quenching analysis was performed on PDIA3 (0.5 μM), in the reduced form, by adding stepwise increasing concentration of each molecule and recording the protein fluorescence spectra. For some flavonoids the analysis was extended to isolate a′ domain (1 μM), always in the reduced form. […] For each ligand molecule the Stern-Volmer quenching constant was obtained by linear regression of plots of F 0/F versus [L].
The Stern-Volmer quenching constant may be expressed as K SV = K q τ 0, where K q is the quencher rate coefficient and τ 0 is the average lifetime of the emissive excited state of the protein in the absence of the quencher.
The number of binding sites (n) and the binding constant (K b) were obtained by plotting log((F 0 − F)/F) versus log(1/([L t] − n(F 0 − F)[P t]/F 0)) using the reiterative calculation process described by Sun et al., assuming a similar affinity for each binding site.

PDIA3 [3] = target: T1, PDIA3; assay: Differential scanning fluorimetry (thermal stability, SYPRO Orange); assay type: binding; conditions: flavonoid up to 50 μM, mainly at the highest concentration
Description: Protein stability was tested by the fluorescence-based thermal stability assay or differential scanning fluorimetry (DSF) developed by Pantoliano and coworkers. DSF records the fluorescence emission signal from the binding of a dye (SYPRO orange) to the exposed hydrophobic patches upon protein unfolding. Fluorescence measurements were performed using a CFX96 Connect RT-PCR instrument (BioRad). 18 μl aliquots of protein solution (1 μM), freshly diluted in Tris Buffered saline (50 mM TrisHCl, pH 8.0, 150 mM NaCl) containing 0.1 mM DTT, 0.2 mM EDTA, and 1 : 1000 dilution of SYPRO Orange (50 mM stock solution in DMSO), were distributed in a 96-well plate. Sample wells were addition of increasing concentration (up to 50 μM) of individual flavonoid by adding 2 μl of 10-fold concentrated stock solutions freshly prepared. As control, the protein solution was added with 2 μl of the dilution buffer. A melting point analysis was recorded increasing the temperature from 20 to 95°C with an increment of 0.5°C and reading, at each temperature, the fluorescence in fluorescence resonance energy transfer mode (FRET). Each measure was the average of three sample wells reading and each DSF experiment was repeated at least three times. To calculate T m values, DSF data from the melting curve were exported and fitted to Boltzman equation using GraphPad software. Effect of flavonoids was evaluated comparing the T m values in presence and absence of each molecule.

[4] = K d = 1/K b, reduced PDIA3, pH 7.4, 25°C, read-out: dissociation constant (K d)

SMILES | Effect on DNA binding activity of PDIA3 (PDIA3 [1]) | Stern-Volmer constant (K SV) (PDIA3 [2]) [M⁻¹] | Kd (PDIA3 [2]; Figure 8, no unit printed in the picture, read-out: Dissociation constant (Kd)) [µM] | bimolecular quenching rate constant (K q) (PDIA3 [2]; reduced PDIA3, pH 7.4, 25°C) [M⁻¹ s⁻¹] | Kd (PDIA3 [2]; [4]) [µM] | binding constant (K b) (PDIA3 [2]; reduced PDIA3, pH 7.4, 25°C) [M⁻¹] | Effect on PDIA3 stability (T m) (PDIA3 [3])
COc1ccc(-c2cc(=O)c3c(O)c(OC)c(OC)cc3o2)cc1O [Eupatorin, eupatorin] | did not significantly affect and None | 89362 ± 688 | 10.3 | 8.94e+12 | 10.3 | 96700 | –
O=c1cc(-c2ccc(O)cc2)oc2cc(O)cc(O)c12 [Apigenin, apigenin] | – | 54332 ± 1185 | – | 5.43e+12 | 17 | 58700 | similar, but less pronounced, effect
COc1ccc(-c2cc(=O)c3c(OC)c(OC)c(OC)cc3o2)cc1O [Eupatorin-5-methyl ether, eupatorin-5-methyl-ether] | did not significantly affect | 90016 ± 1875 | – | 9e+12 | 11.1 | 90400 | –
